According to US9593149B2, “Amylin and calcitonin receptor agonist” (Novo Nordisk A/S, priority 2014, dated 2017):
Numbered stars: 1 amine (or outer) side, 2 acyl side, 3 side chain; on linkers, the order of the positions; unused ones are H or OH. Peptide text beside a SMILES is read from it. * marks the point of attachment. C18 diacid = O=C(O)CCCCCCCCCCCCCCCCC(=O)*; γGlu = O=C(O)[C@H](CCC(=O)[*:2])N[*:1]

Experiments:
[1] = biological target: T1, human calcitonin (a) receptor, BHK570 cells (Homo sapiens, UniProt P30988); assay: Assay (II)b functional CRE-luciferase assay without albumin, human calcitonin receptor; assay type: cell-based; details: Tested without HSA; read-out: hCTR funct. EC50
T1 construct: host or cells: BHK570
T1 sequence (P30988 25-474): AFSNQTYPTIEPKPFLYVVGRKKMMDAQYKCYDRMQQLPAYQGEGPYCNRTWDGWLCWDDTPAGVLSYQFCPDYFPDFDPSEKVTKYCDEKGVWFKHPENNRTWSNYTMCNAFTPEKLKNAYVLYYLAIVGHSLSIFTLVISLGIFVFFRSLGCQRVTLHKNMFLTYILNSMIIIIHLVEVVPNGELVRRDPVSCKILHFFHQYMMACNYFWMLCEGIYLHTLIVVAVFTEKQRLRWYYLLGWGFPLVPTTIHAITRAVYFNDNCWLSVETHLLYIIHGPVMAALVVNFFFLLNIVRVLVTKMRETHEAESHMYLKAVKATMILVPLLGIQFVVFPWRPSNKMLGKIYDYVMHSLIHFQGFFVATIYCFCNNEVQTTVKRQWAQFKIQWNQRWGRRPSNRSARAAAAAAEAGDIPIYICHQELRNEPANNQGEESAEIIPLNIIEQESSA
In short: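 BHK570 cells stably expressing human calcitonin receptor with CRE-luciferase reporter, plus RAMP-3 for the amylin 3(a) line. Cells stimulated 3 hours at 37 °C in albumin-free assay medium (0.1% ovalbumin, 10 mM Hepes pH 7.4); cAMP-driven luciferase read by luminescence.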

[2] = Assay (IV) determination of solubility; assay type: physicochemical
Method: Assay (IV)—Determination of Solubility
The mimylin peptide was dissolved in water at ˜500 nmol/ml and mixed 1:1 with a series of buffers (100 mM glycylglycine pH 3.0, 100 mM glycylglycine pH 4.0, 100 mM glycylglycine pH 5.0, 100 mM bistrispropane pH 6.0, 100 mM bistrispropane pH 6.5, 100 mM bistrispropane pH 7.0, 100 mM bistrispropane pH 7.5, 100 mM bistrispropane pH 8.0).

[3] = biological target: T2, human calcitonin receptor (Homo sapiens, UniProt P30988); assay: Assay (VII) binding to the human calcitonin receptor (membrane, SPA); details: membranes, 125I-Calcitonin; read-out: hCT-R binding IC50
T2 construct: expressed in transfected cells; host or cells: BHK tk'ts 13
T2 sequence (P30988 25-474): T1 sequence (P30988 25-474)
Method: Assay (VII)—Determination of Binding to the Human Calcitonin Receptor (Membrane)
The binding assay was performed using scintillation proximity assay (SPA) beads (RPNQ0001) from PerkinElmer® and cell membranes prepared from a BHK tk'ts 13 cell line was stably transfected with the human calcitonin receptor and a CRE-responsive luciferase reporter gene. Membranes were prepared in the following way; the cells were rinsed with PBS and incubated with Versene for approximately 5 min before harvesting. The cells were flushed with PBS and the cell-suspension was centrifuged for 5 min at 1000 rpm. Cells were homogenized in a buffer containing 20 mM Na-HEPES and 10 mM EDTA (pH 7.4) and centrifuged at 20.000 rpm for 15 min. The resulting pellet was resuspended, homogenized and centrifuged (20.000 rpm, 15 min) in a buffer containing 20 mM Na-HEPES and 0.1 mM EDTA (pH 7.4, buffer 2). The resulting pellet was resuspended in buffer 2 and protein concentration was tested (BCA protein Assay, Pierce). The homogenate was kept cold during the whole procedure. The membranes were kept at −80° C. until use. Assay was performed in a 384 well Optiplate (PerkinElmer®) in a total volume of 40 ul. Membranes were mixed with SPA beads. Final concentration of membranes 35 ng/μL final and Final concentration of SPA beads was 0.05 mg/well. Test-compounds were dissolved in DMSO and further diluted in assay buffer (50 mM Hepes, pH 7.4, 1 mM CaCl2, 5 mM MgCl2, 0.1% OA and 0.02% Tween20). Radioligand ^125I-Calcitonin was dissolved in assay buffer and added to the Optiplate at a final concentration of 75 pM/well (approx. 30.000 cpm/10 ul). The final mixture was incubated for 120 min with shaking at 400 rpm at 25° C. prior to centrifugation (1500 rpm, 10 min). Samples were analyzed on TopCounter™ (Packard). The IC50 was calculated using (one site binding competition analysis) GraphPad Prism5 as a measure of receptor affinity.

[4] = biological target: T3, human amylin receptor (human calcitonin receptor + human RAMP3), BHK tk'ts 13 cells (Homo sapiens, UniProt O60896+P30988); assay: Assay (Va) binding to the human amylin receptor (whole cell); details: read-out: hAmylin-R binding IC50
T3 construct: expressed in transfected cells; host or cells: BHK tk'ts 13
Method: The day before the assay the cells were Seeded into Poly-D-Lysin coated 384W Opaque White, BD BioCoat plates (10000 cells/well) and Incubated overnight at 37° C., 5% CO2, 95% humidity.

T3 sequence (O60896 24-148, one chain of several): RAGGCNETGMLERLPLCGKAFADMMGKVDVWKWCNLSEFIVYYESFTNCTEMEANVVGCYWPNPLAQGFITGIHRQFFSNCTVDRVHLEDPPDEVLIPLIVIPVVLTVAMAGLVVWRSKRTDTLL

What does the source list for `CC(C)C[C@H](NC(=O)[C@H](CCC(=O)O)NC(=O)[C@H](C)NC(=O)[C@@H](NC(=O)[C@H](CC(C)C)NC(=O)[C@H](CCCNC(=N)N)NC(=O)CNC(=O)[C@H](CC(C)C)NC(=O)[C@@H](NC(=O)[C@H](C)NC(=O)[C@@H](NC(=O)[C@@H](NC(=O)[C@H](CC(C)C)NC(=O)[C@H](CCC(=O)O)NC(=O)[C@H](CO)NC(=O)[C@H](C)NC(=O)CC[C@H](NC(=O)CCCCCCCCCCCCCCCCC(=O)O)C(=O)O)[C@@H](C)O)[C@@H](C)O)C(C)C)[C@@H](C)O)C(=O)N[C@@H](Cc1c[nH]cn1)C(=O)N[C@@H](CCC(=O)O)C(=O)N[C@@H](CC(C)C)C(=O)N[C@@H](CCC(=O)O)C(=O)N[C@H](C(=O)N[C@@H](CC(C)C)C(=O)N1CCC[C@H]1C(=O)N[C@@H](CCCNC(=N)N)C(=O)N[C@H](C(=O)N[C@@H](CCC(=O)O)C(=O)N[C@H](C(=O)NCC(=O)N[C@H](C(=O)NCC(=O)N[C@H](C(=O)N1CCC[C@H]1C(N)=O)[C@@H](C)O)[C@@H](C)O)[C@@H](C)O)[C@@H](C)O)[C@@H](C)O` [compound 105, [N-terminal(C18 diacid-gGlu), des1, 6T, 9V, 14T, 21E, 30T, 31G, 32T]mimylin] ({C18 diacid-γGlu}-ASELTTAVLGRLTAELHELETLPRTETGTGTP-NH2)?
EC50 [1]: 45 pM; solubility at 18 h ([2]; bistrispropane buffer, pH 6.5): ≥ 200 µM; solubility at 18 h ([2]; bistrispropane buffer, pH 7.5): ≥ 200 µM; solubility at 18 h ([2]; bistrispropane buffer, pH 6.0): ≥ 200 µM; solubility at 18 h ([2]; bistrispropane buffer, pH 7.0): ≥ 200 µM; solubility at 18 h ([2]; bistrispropane buffer, pH 8.0): ≥ 200 µM; solubility at 18 h ([2]; glycylglycine buffer, pH 3.0): ≥ 200 µM; solubility at 18 h ([2]; glycylglycine buffer, pH 4.0): ≥ 200 µM; solubility at 18 h ([2]; glycylglycine buffer, pH 5.0): ≥ 200 µM; IC50 [3]: 222 pM; IC50 [4]: 22900 pM
